Positions count from the first letter of the chain named. Like-named read-outs stand apart in the source and are kept apart here. Ends that are not written are not given here. linker L1 (45 aa) = not defined here

One test concerns Kv1 channels. The conditions noted are these: ref 17; cited from earlier work. The source says:
Consequently, our flow cytometry approach can be used to screen unlabeled small organic blockers for their binding with the external lining of the pore. If necessary, FP-peptide blockers can be substituted in the presented assay by small fluorescently labeled ligands, and their affinities can be estimated by direct titration, using the approach ...

The target of a further test is Kv1.3. The note with it: cited from earlier work. As for the experimental part:
Table 1 Kd values obtained by direct titration of GFP-toxins or by their displacement with unlabeled ones and their comparison to our previous and literature data. | column: Kd or IC50, nM / Literature Data || Our approach was evaluated using several Kv1.3 ligands with known dissociation constants. These are unlabeled recombinant channel blockers from scorpion venom, AgTx2, ChTx, KTx and labeled GFP-tagged chimeras AgTx-GFP and ChTx-GFP. […] This is close to the values reported earlier: 0.21 nM for AgTx2-GFP in our system and 1.8–2.6 nM for ChTx (Table 1).

Test [1] has as its system KcsA-Kv1.3-RFP. Description: Displacement of GFP-labeled toxins by unlabeled toxins on spheroplasts, flow cytometry. It counts as binding. The conditions noted are these: for Kd: displacement of AgTx2-GFP, Cheng-Prusoff, Mean ± SD, read-out: Apparent dissociation constant (Kap). As to the method: (§1) Spheroplasts were prepared according to the previously developed protocol. Briefly, E. coli cells (BL21 (DE3) strain) transformed with pET28a-KcsA-Kv1.3-RFP plasmid were cultivated in a minimal M9 medium at 37 °C up to OD560 = 0.8, then induced with 50 μM IPTG and further grown for 18 h. Cells were harvested by centrifugation (5000× g, 10 min, 4 °C), incubated in buffer A (10 mM Tris–HCl, pH 8.0, 0.5 m sucrose) containing lysozyme (20 μg/mL) for 7 min on ice, then diluted twofold with buffer B (10 mM Tris–HCl, pH 8.0, 0.3 mM ethylenediamine tetraacetic acid) and further incubated for 20 min. Then MgCl2 was added to a final concentration of 10 mM to stabilize the spheroplasts. Obtained in this way, the spheroplast suspension has OD560 of about 0.5 and was diluted for binding assay as described further.
(§2) For ligand binding analysis, a series of ligand dilutions were prepared in 12 × 75 mm flow cytometry test tubes. For this, 45 µL of toxin solution with a ten times higher concentration than the maximal concentration on titration curve was prepared. This solution was serially diluted with 3.16-fold step (13.9 µL of toxin solution + 30 µL buffer). These toxin dilutions were supplemented with 270 µL of spheroplast suspension at 10^6 cells/mL to give 300 µL final reaction mixtures. For analysis of displacement of GFP-labeled toxins by unlabeled toxins, spheroplast suspensions were supplemented with 1.1× concentration of GFP-labeled toxin before mixing with unlabeled toxin dilutions. All dilutions were made in a binding buffer: 0.25 M sucrose, […], 2 mM KCl, 50 mM NaCl, 10 mM MgCl2, 0.2% BSA and 50 mM Tris–HCl, pH 7.5.
(§3) To ensure equilibrium conditions, we analyzed samples after 90–120 min of incubation without removing toxins. Data acquisition was carried out with FC-500 flow cytometer (Beckman Coulter, Brea, CA, USA) using 488 nm excitation for both GFP and RFP and fluorescence detection with FL1 (505–545 nm) and FL3 (610–630 nm) channels for GFP and RFP, respectively. To minimize background fluorescence, samples were run at low speed that gave approx. 100–500 events/s. Events were triggered by side scatting (SSC) so that RFP-labeled cells constituted approx. 30% of events (Figure 2). Remaining events were also present in the samples of filtered binding buffer without cells, so were likely to be related to system noise (either electronic or optical) but not to the dim spheroplasts.
(§4) Automated data analysis was performed by a dedicated script after pre-processing with commercial software. The script was available in user-friendly Jupyter notebook format where data were processed stepwise, and user input-output was realized through an internet browser. This script is designed to process multiple datasets at once and can be easily adjusted for someone’s actual needs.
Initial preprocessing was done with used FlowJo v10 software (Treestar Inc., Wilmington, DE, USA). This was used for gating on cells by forward and side scatter, followed by gating of RFP-positive events (Figure 1) and exporting of gated data in FCS format. This step was preferable since it allowed one to convert data into a conventional FCS format (our flow cytometer import data in LMD file format) and to filter out off-target events such as system noise, cell debris, clumped and untransfected cells (without Kv1.3-RFP in our case). We also created a script for this preprocessing but found it more complicated and less robust than commercial software. […]

The target of another test is KcsA-Kv1.3. The note with it: ref Our Previous Data (Table 1); cited from earlier work. As to the method: Table 1 Kd values obtained by direct titration of GFP-toxins or by their displacement with unlabeled ones and their comparison to our previous and literature data. | column: Dissociation Constants, nM * / Our Previous Data || Our approach was evaluated using several Kv1.3 ligands with known dissociation constants. These are unlabeled recombinant channel blockers from scorpion venom, AgTx2, ChTx, KTx and labeled GFP-tagged chimeras AgTx-GFP and ChTx-GFP. […] This is close to the values reported earlier: 0.21 nM for AgTx2-GFP in our system and 1.8–2.6 nM for ChTx (Table 1).

Test [2] relates to KcsA-Kv1.3-RFP. Description: Direct titration of GFP-labeled toxins on spheroplasts by flow cytometry. It is filed as binding. As to the method: as §1, §2, §3, §4
Initial preprocessing was done with used FlowJo v10 software (Treestar Inc., Wilmington, DE, USA). This was used for gating on cells by forward and side scatter, followed by gating of RFP-positive events (Figure 1) and exporting of gated data in FCS format. This step was preferable since it allowed one to convert data into a conventional FCS format (our flow cytometer import data in LMD file format) and to filter out off-target events such as system noise, cell debris, clumped and untransfected cells (without Kv1.3-RFP in our case). We also created a script for this preprocessing but found it more complicated and less robust than commercial software.
Filtered data were processed stepwise by a dedicated script, written in the Python programming language and available as a Jupyter notebook for running either on a local machine or in a kaggle data cloud (https://www.kaggle.com/georgesharonov/fcsgroupfit, accessed and executed on 14 November 2021). Data processing workflow was designed for high throughput analysis by processing all similar data in a single script execution. The processing steps were detailed within the notebook. […]
In general terms: In flow cytometry, cells or beads pass a laser one at a time.

Test [3] has as its target T1, KcsA-Kv1.3 hybrid potassium channel tagged with a red fluorescent protein (TagRFP) (Homotetramer. Turret swap limits are not printed: taken from the known KcsA-Kv1.3 chimera design (ref. 8), KcsA 52-64 replaced by the gap-free aligned Kv1.3 segment (the same stretch is expected in mo)).
T1 chain: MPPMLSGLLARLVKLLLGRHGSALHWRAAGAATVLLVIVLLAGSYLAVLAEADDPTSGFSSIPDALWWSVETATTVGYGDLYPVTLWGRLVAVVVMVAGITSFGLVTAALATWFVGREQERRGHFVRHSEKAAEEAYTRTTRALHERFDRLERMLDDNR
Description: flow cytometry on cells; same direct titration data; conventional analysis: mean or median of the RFP-positive minus the RFP-negative population; no saturation up to 100 nM, approach called inconsistent by the authors. The conditions noted are these: one partner purified.

Test [4] has as its target T1, KcsA-Kv1.3 hybrid potassium channel …. Description: flow cytometry on cells; same direct titration data; slope of GFP against RFP by linear fit of all RFP-positive events, one-site fit. The conditions noted are these: one partner purified.
The target is the same in test [5]. Description: flow cytometry on cells. The note with it: one partner purified.

As for `Nc1ccncc1` [4-aminopiridine], the “inhibition of Kv1 channels” value in the test on Kv1 channels is given as “inhibit Kv1 channels from the inside of the cell”.

As a reminder, the IC50 is the concentration at which inhibition is half-maximal. As for `CC[C@H](C)[C@@H]1NC(=O)[C@@H]2CSSC[C@@H]3NC(=O)[C@H](CCCCN)NC(=O)[C@H](CCCNC(=N)N)NC(=O)[C@H](CC(N)=O)NC(=O)[C@H](CCSC)NC(=O)[C@H](CSSC[C@H](NC(=O)[C@H](CO)NC(=O)[C@@H](NC(=O)[C@H](CC(N)=O)NC(=O)[C@@H](NC(=O)[C@@H]4CCCN4C(=O)[C@@H](NC(=O)CN)C(C)C)[C@@H](C)CC)C(C)C)C(=O)N[C@@H]([C@@H](C)O)C(=O)NCC(=O)N[C@@H](CO)C(=O)N4CCC[C@H]4C(=O)N[C@@H](CCC(N)=O)C(=O)N2)NC(=O)[C@H](CCCCN)NC(=O)CNC(=O)[C@H](Cc2ccccc2)NC(=O)[C@H](CCCNC(=N)N)NC(=O)[C@H](CCSC)NC(=O)CNC(=O)[C@H](C)NC(=O)[C@H](CC(=O)O)NC(=O)[C@H](CCCCN)NC(=O)[C@H](CSSC[C@@H](C(=O)N[C@H](C(=O)N2CCC[C@H]2C(=O)N[C@@H](CCCCN)C(=O)O)[C@@H](C)O)NC(=O)[C@H](Cc2c[nH]cn2)NC3=O)NC(=O)[C@@H]2CCCN2C(=O)[C@H](CCCCN)NC1=O` [AgTx2, agitoxin 2], the entries for the “Kd or IC50 (literature)” value on Kv1.3 (ref 8), on Kv1.3 (ref 18) and on Kv1.3 (ref 19) were 6.4 nM, 0.004 nM and 0.2 nM, respectively. Moreover, in the test on KcsA-Kv1.3-RFP [1] (100 nM unlabeled AgTx2), the “inhibition of binding of labeled ligands by excess unlabeled ligand” value is on record as “completely inhibited”. On KcsA-Kv1.3-RFP [1] (displacement of 1 nM AgTx2-GFP, Figure 4B curve, read-out: IC50 (displacement of 50% of the labeled ligand)), the half-maximal inhibitory concentration (IC50) was found to be 0.7 nM. The Kd at KcsA-Kv1.3-RFP [1] (n = 2) was 0.1 ± 0.02 nM; on KcsA-Kv1.3 it was 0.21 nM. In addition, the “fold by which binding constant is lower than that of the labeled variant” value in the test on KcsA-Kv1.3-RFP [1] (unlabeled toxin vs its GFP-labeled variant) is 2–4 times.

Consider `CC[C@H](C)[C@H](NC(=O)[C@H](CCC(=O)O)NC(=O)[C@@H](NC(=O)CN)C(C)C)C(=O)N[C@@H](CC(N)=O)C(=O)N[C@H](C(=O)N[C@@H](CCCCN)C(=O)N[C@H]1CSSC[C@@H]2NC(=O)[C@H](CCCCN)NC(=O)CNC(=O)[C@H](Cc3ccccc3)NC(=O)[C@H](CCCNC(=N)N)NC(=O)[C@H](CCSC)NC(=O)CNC(=O)[C@H](C)NC(=O)[C@H](CC(=O)O)NC(=O)[C@H](CCCCN)NC(=O)[C@@H]3CSSC[C@@H](C(=O)N[C@H](C(=O)N4CCC[C@H]4C(=O)N[C@@H](CCCCN)C(=O)O)[C@@H](C)O)NC(=O)[C@H](Cc4c[nH]cn4)NC(=O)[C@H](CSSC[C@H](NC(=O)[C@H](CCC(N)=O)NC(=O)[C@@H]4CCCN4C(=O)[C@H](CO)NC(=O)CNC(=O)[C@H](CO)NC1=O)C(=O)N[C@@H](CC(C)C)C(=O)N[C@@H](CCCCN)C(=O)N1CCC[C@H]1C(=O)N3)NC(=O)[C@H](CCCCN)NC(=O)[C@H](CCCNC(=N)N)NC(=O)[C@H](CC(N)=O)NC(=O)[C@H](CCSC)NC2=O)C(C)C` [KTx, kaliotoxin 1], for which the “Kd or IC50 (literature)” value at Kv1.3 (ref 21) was 0.65 nM; at Kv1.3 (ref 22), 0.02 nM; on Kv1.3 (ref 23), 0.1 to 2 nM. Moreover, the values for the Kd at KcsA-Kv1.3-RFP [1] (n = 3) and at KcsA-Kv1.3 were 0.04 ± 0.02 nM and 0.78 nM, respectively.

Take `CC(C)/N=c1\cc2n(-c3ccc(Cl)cc3)c3ccccc3nc-2cc1Nc1ccc(Cl)cc1` [clofazimine]: the “inhibition of Kv1 channels” value in the test on Kv1 channels is on record as “inhibit Kv1 channels from the inside of the cell”.

With “AgTx2-GFP: AgTx2 tagged N-terminally with eGFP, moieties separated by a 45-aa linker L1; fluorescent probe ({eGFP-linker L1 (45 aa)}-GVPINVSCTGSPQCIKPCKDAGMRFGKCMNRKCHCTPK; ends and bridges not checked)”, the “Slope, nonspecific binding” value in the test on KcsA-Kv1.3-RFP [2] (1 nM labeled toxin + 100 nM AgTx, fitting of all events) is recorded as 0.49; in the test on KcsA-Kv1.3-RFP [2] (1 nM labeled toxin + 100 nM AgTx, fitting of reduced data), 0.23; with KcsA-Kv1.3-RFP [2] (10 nM labeled toxin + 100 nM AgTx, fitting of all events), 0.54. Also, the “Slope (proportional to occupied receptor fraction)” value in the test on KcsA-Kv1.3-RFP [2] (1 nM labeled toxin, fitting of all events) stood at 0.88; in the test with KcsA-Kv1.3-RFP [2] (1 nM labeled toxin, fitting of reduced data), 0.82; in the test on KcsA-Kv1.3-RFP [2] (10 nM labeled toxin, fitting of all events) it was 0.95; in the test on KcsA-Kv1.3-RFP [2] (10 nM labeled toxin, fitting of reduced data), 0.9. For the same molecule, the Kd on KcsA-Kv1.3 was 0.21 nM.

B1: charybdotoxin tagged N-terminally with eGFP (ligand)
chain: QFTNVSCTTSKECWSVCQRLHNTSRGKCMNKKCRCYS
notes: also called ChTx-GFP; GFP-L1-ChTx; source: E. coli Rosetta-gami (DE3) pLysS, pET23d-GFP-L1-ChTx, purified (Ni-NTA, PD-10 desalting); not shown: eGFP (with the linker L1), N-terminal, kept
B1: in test [3], the “Kd by the conventional mean/median analysis, which the authors reject” value amounted to 32 nM. Besides, the Kd in test [4] is 0.86 nM.

B2: agitoxin 2 tagged N-terminally with eGFP (ligand)
chain: GVPINVSCTGSPQCIKPCKDAGMRFGKCMNRKCHCTPK
notes: The analogous ChTx-GFP was purified on Ni-NTA, so a His tag is likely here too; also called AgTx2-GFP; AgTx-GFP; source: design and production described earlier [14]; (plasmid pET23d-GFP-L1-AgTx2); not shown: eGFP (with the 45-aa linker L1), N-terminal, kept
B2: the “Kd by the conventional mean/median analysis, which the authors reject” value in test [3] was 6 nM. The molecule further yielded a Kd in test [5] of 0.2 nM.

B3: kaliotoxin 1 (peptide)
chain: B2 chain with P3E, S7K, T9S, I15L
notes: also called KTx; source: recombinant, produced as described earlier [12] from plasmid pET23d-MalE-L1-KTx
Regarding B3, the Kd in test [5] was 0.04 nM.

B4: agitoxin 2 (peptide)
chain: B2 chain
notes: also called AgTx2; source: recombinant, produced as described earlier [12] from plasmid pET23d-MalE-L1-AgTx2
Consider B4, for which, in test [5], the Kd came out at 0.1 nM.

The record behind these values is publication PMC8614864, “Bioengineered System for High Throughput Screening of Kv1 Ion Channel Blockers” (Bioengineering, 2021).
